Some test systems named below: OVCAR-8; MCF7; SNB-19; MDA-MB-231; HCC 2998; IGROV-1; 786-0; RPMI-8226; COLO 205; RXF 393; SF-539; UACC-257; UO-31; OVCAR-4; HOP-92; HL-60; BT-549; CCRF-CEM; NCI-H522.
What all share (assay): growth of human tumour cells (NCI), 48 h

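Briefly, cells in 96-well plates were exposed to five compound concentrations for 48 h, and endpoints were estimated by linear interpolation. GI50 marks 50% less growth.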 Activity calls are given as the source filed them. Cut-off read from the data, not from the text of the source: active = GI50 up to about 1.1 µM and inactive = higher. Where only a bound is given, the exact number is not on record here.

Take `N#Cc1c(SCc2ccccc2)nc(-c2ccccc2)[nH]c1=S`: the GI50 in the assay with OVCAR-8 was 27.6 µM (inactive); in the assay with MCF7, 26.1 µM (inactive); in the assay with SNB-19 it was 29.9 µM (inactive); in the assay with MDA-MB-231 it was 37.4 µM (inactive); in the assay with HCC 2998 it was 19.3 µM (inactive); in the assay on IGROV-1 it was 29.9 µM (inactive). In addition, the GI50 was 22.3 µM (inactive) in the assay on 786-0; 24.7 µM (inactive) in the assay on RPMI-8226; 17.1 µM (inactive) in the assay on COLO 205; 19.2 µM (inactive) with RXF 393; 25.2 µM (inactive) with SF-539; 35.2 µM (inactive) in the assay on UACC-257. Besides, the GI50 in the assay on UO-31 is 17.8 µM (inactive); with OVCAR-4, 30.9 µM (inactive); in the assay with HOP-92, 31.6 µM (inactive); with HL-60, 30.6 µM (inactive); in the assay with BT-549 it was 20.6 µM (inactive); with CCRF-CEM, 34.3 µM (inactive).
Regarding `COc1cc(C#CC(=O)OC/C=C/c2ccc3c(c2)OCO3)cc(OC)c1OC`, the GI50 in the assay on OVCAR-8 was 29.1 µM (inactive); with MCF7, 19.5 µM (inactive); with SNB-19, 42.9 µM (inactive); in the assay with MDA-MB-231, 25.8 µM (inactive); with HCC 2998, 26.2 µM (inactive); in the assay on 786-0, 29.8 µM (inactive). Moreover, the GI50 is 20.5 µM (inactive) in the assay with RPMI-8226; 19.1 µM (inactive) with COLO 205; 12.3 µM (inactive) with RXF 393; 20.7 µM (inactive) in the assay with SF-539; 26.8 µM (inactive) in the assay on UACC-257; 15.6 µM (inactive) in the assay with UO-31. The GI50 in the assay on OVCAR-4 is 59.7 µM (inactive); in the assay on HOP-92, 17.8 µM (inactive); in the assay with HL-60, 36.5 µM (inactive); in the assay on BT-549 it was 19.4 µM (inactive); with CCRF-CEM, 18.9 µM (inactive).
Regarding `O=C(NNc1cn[nH]c(=O)c1Cl)/C(=C/c1ccc2c(c1)OCO2)NC(=O)c1ccccc1`, the GI50 in the assay with OVCAR-8 was 36.7 µM (inactive); in the assay with MCF7, 41.5 µM (inactive); in the assay on SNB-19 it was 76.2 µM (inactive); with MDA-MB-231 it was > 100 µM (inactive); in the assay on HCC 2998, 41.3 µM (inactive); in the assay with IGROV-1, 23.6 µM (inactive). In addition, the GI50 in the assay on 786-0 is 38.5 µM (inactive); with COLO 205, 46.9 µM (inactive); in the assay with SF-539 it was 40.7 µM (inactive); in the assay on UACC-257, > 100 µM (inactive); with UO-31, 48.2 µM (inactive); in the assay on OVCAR-4, 32.8 µM (inactive). The GI50 in the assay with HOP-92 is > 100 µM (inactive); in the assay on BT-549, 18.5 µM (inactive).
For the compound `O=C1C=CC2(O[C@H](c3ccccc3)[C@@H](c3ccccc3)O2)C(SC(=O)c2ccccc2)C1` (stereo not given in full), the GI50 is 0.201 µM (active) in the assay on OVCAR-8; 0.371 µM (active) with MCF7; 2.19 µM (inactive) with SNB-19; 3.9 µM (inactive) in the assay with MDA-MB-231; 1.52 µM (inactive) with IGROV-1; 0.385 µM (active) in the assay with 786-0. For the same compound, the GI50 with RPMI-8226 is 0.979 µM (active); with COLO 205, 1.4 µM (inactive); in the assay with RXF 393, 0.182 µM (active); in the assay on SF-539, 1.75 µM (inactive); in the assay with UACC-257, 1.79 µM (inactive); in the assay with UO-31 it was 1.37 µM (inactive). Moreover, the GI50 was 1.63 µM (inactive) in the assay on OVCAR-4, 1.84 µM (inactive) in the assay on HL-60 and 0.433 µM (active) in the assay on BT-549.
Turning to `O=C(O)Cn1nnc2c(=O)[nH][nH]c(=O)c21`, the GI50 with OVCAR-8, in the assay on MCF7, with SNB-19, with MDA-MB-231, in the assay with HCC 2998 and with 786-0 was > 100 µM (inactive) in each case. Moreover, the GI50 is > 100 µM (inactive) in the assay with RPMI-8226; > 100 µM (inactive) in the assay on COLO 205; > 100 µM (inactive) with UACC-257; > 100 µM (inactive) with UO-31; > 10 µM (inactive) in the assay on OVCAR-4; > 100 µM (inactive) with HOP-92. Moreover, the GI50 in the assay on HL-60, in the assay with BT-549 and in the assay on CCRF-CEM was > 100 µM (inactive) throughout.
`CC1(C)O[C@@H](CP(c2cccc3ccccc23)c2cccc3ccccc23)[C@H](CP(c2cccc3ccccc23)c2cccc3ccccc23)O1`: the GI50 with OVCAR-8, in the assay with MCF7, with SNB-19, in the assay on MDA-MB-231, in the assay with NCI-H522 and with HCC 2998 was > 100 µM (inactive) throughout. The GI50 with IGROV-1, with 786-0, with COLO 205, in the assay on RXF 393, in the assay with UACC-257 and in the assay with UO-31 was > 100 µM (inactive) throughout. Moreover, the GI50 in the assay on OVCAR-4, in the assay with BT-549 and in the assay with CCRF-CEM was > 100 µM (inactive) throughout.
For `Cc1cc(S(=O)(=O)N=C2NCC(C)(C)CN2)c(S)cc1Cl`, the GI50 in the assay on OVCAR-8 was 27 µM (inactive); in the assay with MCF7 it was 42.5 µM (inactive); in the assay with SNB-19, 36.6 µM (inactive); in the assay with MDA-MB-231, 43.4 µM (inactive); with NCI-H522, 27.9 µM (inactive); with HCC 2998, 67.6 µM (inactive). In addition, the GI50 in the assay with IGROV-1 is 38.9 µM (inactive); with 786-0 it was 32.1 µM (inactive); in the assay with COLO 205, 47.3 µM (inactive); in the assay with RXF 393 it was 38 µM (inactive); in the assay with SF-539, 40.6 µM (inactive); with UACC-257 it was 42.3 µM (inactive). The GI50 was 44.1 µM (inactive) in the assay on UO-31, 17.6 µM (inactive) in the assay on OVCAR-4, 25.8 µM (inactive) in the assay on HL-60 and 29.5 µM (inactive) with BT-549.
For the compound `COc1ccc(P2(=S)Oc3ccccc3-c3ccccc3O2)cc1`, the GI50 was 0.802 µM (active) in the assay on OVCAR-8; 0.377 µM (active) in the assay on MCF7; 0.521 µM (active) in the assay with SNB-19; 0.439 µM (active) with MDA-MB-231; 0.193 µM (active) with NCI-H522; 0.443 µM (active) in the assay with HCC 2998. Moreover, the GI50 was 0.394 µM (active) with IGROV-1; 0.531 µM (active) in the assay on 786-0; 0.343 µM (active) in the assay with COLO 205; 0.266 µM (active) in the assay with SF-539; 1.35 µM (inactive) with UACC-257; 0.518 µM (active) with UO-31. For the same compound, the GI50 with OVCAR-4 is 4.25 µM (inactive); in the assay with HOP-92 it was 4.18 µM (inactive); in the assay with HL-60, 0.284 µM (active); in the assay on BT-549, > 100 µM (inactive); in the assay on CCRF-CEM, 0.356 µM (active).
`O=C(O)CN1C(=O)C(Cc2ccc(O)cc2)N=C(c2cccc(O)c2)c2ccccc21` (stereo not given): the GI50 with OVCAR-8 was > 100 µM (inactive); in the assay with MCF7, > 100 µM (inactive); with SNB-19, > 100 µM (inactive); with MDA-MB-231, > 100 µM (inactive); with NCI-H522, 80.4 µM (inactive); in the assay with IGROV-1 it was > 100 µM (inactive). Moreover, the GI50 in the assay on 786-0, in the assay on RPMI-8226, in the assay on SF-539, with UACC-257, in the assay with UO-31 and in the assay on OVCAR-4 was > 100 µM (inactive) each time. Also, the GI50 in the assay with HOP-92, with HL-60 and in the assay with BT-549 was > 100 µM (inactive) throughout.
As for `CN(C)C1(N(C)C)Oc2c(c(=O)n(C)c(=O)n2C)C(c2ccc(F)cc2)C1(F)F` (stereo not given), the GI50 in the assay with MCF7, in the assay with SNB-19, in the assay with MDA-MB-231, in the assay with HCC 2998, with 786-0 and in the assay on RPMI-8226 was > 100 µM (inactive) in each case. The GI50 in the assay with COLO 205, in the assay with RXF 393, with UACC-257, in the assay with UO-31, in the assay with OVCAR-4 and in the assay with HOP-92 was > 100 µM (inactive) each time. The GI50 with BT-549 and with CCRF-CEM was > 100 µM (inactive) each time.
As for `O=[N+]([O-])C(C(Cl)=C(Cl)Cl)=C(N1CCCCC1)N1CCCCC1`, the GI50 with OVCAR-8 is > 100 µM (inactive); in the assay with MCF7, 90.4 µM (inactive); with SNB-19, 1.95 µM (inactive); with MDA-MB-231, > 100 µM (inactive); in the assay on HCC 2998, > 100 µM (inactive); with IGROV-1 it was 69.5 µM (inactive). The GI50 was > 100 µM (inactive) in the assay with 786-0; 84.1 µM (inactive) in the assay on RPMI-8226; > 100 µM (inactive) in the assay on COLO 205; 63.1 µM (inactive) in the assay on RXF 393; > 100 µM (inactive) in the assay on SF-539; 63.4 µM (inactive) in the assay with UACC-257. For the same compound, the GI50 in the assay on UO-31 was 22.1 µM (inactive); with OVCAR-4, > 100 µM (inactive); in the assay on HL-60 it was 33.4 µM (inactive); in the assay with BT-549 it was > 100 µM (inactive); with CCRF-CEM it was 41.9 µM (inactive).
Take `O=C(Nc1nnc(-c2ccccc2)o1)C(SC(=S)N1CCCC1)c1ccccc1` (stereo not given): the GI50 was 32 µM (inactive) in the assay with OVCAR-8; 31.3 µM (inactive) in the assay with MCF7; 38.5 µM (inactive) in the assay on SNB-19; 39 µM (inactive) with MDA-MB-231; 22.3 µM (inactive) in the assay on NCI-H522; 22.9 µM (inactive) in the assay with IGROV-1. Also, the GI50 is 26.4 µM (inactive) in the assay on 786-0; 24.3 µM (inactive) with RPMI-8226; 37.2 µM (inactive) with COLO 205; 40.3 µM (inactive) with RXF 393; 34.2 µM (inactive) in the assay with SF-539; 37 µM (inactive) in the assay on UACC-257. The GI50 with UO-31 was 13.3 µM (inactive); in the assay with OVCAR-4, 38.7 µM (inactive); with HL-60 it was 19.9 µM (inactive); in the assay with BT-549, 23.1 µM (inactive); with CCRF-CEM it was 13.4 µM (inactive).

For the origin of these results see ChEMBL document CHEMBL1201862, “PubChem BioAssay data set” (2004).
